# Measurements from US20260069693A1, “UROLITHINS AND T-CELL MEDIATED IMMUNE RESPONSE” (priority 2022, published 2026).
# Key:
# APTK-induced tumors = test: subcutaneous APTK tumors in Pink1-/- mice, UA diet; format: in vivo
# Excerpt: UA activates mitophagy in myocytes and hippocampal neurons via a Pink1/Parkin mediated stress-response (D'Amico et al., 2021). […] Moreover, UA stabilized Parkin protein expression (FIG. 4G). To functionally confirm the dependence of UA induced TSCM formation on Pink1/Parkin mediated mitophagy, the inventors activated Pink1^−/− T cells in the presence or absence of UA. Loss of Pink1 prevented the UA-induced lysosome formation as well as the decrease in mitochondrial content (FIG. 4H, I).
# Tumors were minced and digested with Tumor & Tissue Dissociation Reagent (BD Horizon) for 30 min. The remaining organ pieces were filtered through a 70 μm cell strainer. Cells were then washed with PBS 1% BSA and 2 mM EDTA. Immune cells were enriched on a 30%/40%/75% Percoll gradient after a 1700 rpm 17 min centrifugation. Then, tumor immune filtrates or activated T cells were stained with Fixable Viability Dye-eF780 (65-0865-14; eBioscience), αCD45-FITC (30-F11; 11-0451-85; eBioscience), αCD11b-BV650 (M1/70; 56340; BD) α-CD11C-BV785 (HL3; 563735; BD), αLy6G-BV605 (53-6.7; 563005; BD), αLy6C-AF700 (HK1.4; 128024; Biolegend), αF4/80-PE (BM8; 12-4801-82, eBioscience), αPD-L1-PECy7 (MIH5; 25-5982-80, eBioscience); or with Fixable Viability Dye-eF780 (ebioscience), αCD45-BV786 (30-F11; 564225; BD), αCD4-BUV496 (GK1.5; 564667; BD), αCD8-BV605 (100744; Biolegend), αPD1-APC (J43; 17-9985-82; eBioscience), αTIM-3-PECy7 (RMT3-23; 119715; Biolegend), αCTLA4-PE (UC10-4B9; 106305; Biolegend) and αLag3-BV421 (C9B7W; 125221, Biolegend); or with Fixable Viability Dye-eF780 (eBioscience), αCD4-FITC (H129.19; 553650; BD), αCD8-APC (53-6.7; 17-0081-83; eBioscience), αCD44-AF400 (IM7; 103026; Biolegend), αCD62L-BV785 (MEL-14; 104440; Biolegend), αSca-1-PerCP-Cy5.5 (D7; 45-5981-82; eBioscience), αCD95-PE (Jo2; 554258; BD); or with Fixable Viability Dye-eF780 (eBioscience), αCD8-BV650 (53-6.7; 563234; BD), αCD4-BUV496 (GK1.5; 564667; BD), αCD127-APC (A7R34; 17-1271-82; eBioscience), αCD95-FITC (SA367H8; 152605; Biolegend), αCD44-AF400 (IM7; 103026; Biolegend), αCD62L-BV785 (MEL-14; 104440; Biolegend), αSca-1-PerCP-Cy5.5 (D7; 45-5981-82; eBioscience) followed by intracellular staining of αTCF1-PE (S33-966; 564217; BD), or PGC-1α (sc-518025; D-5; santa cruz), or αCyclinD1 (MA5-28534, DCS-6; Invitrogen) with transcription factor buffer set kit (BD Biosciences). To study cytokine expression, tumor immune infiltrates were stimulated ex vivo with 20 ng/ml PMA and 1 μg/ml Ionomycin (Sigma) for 3 h in T cell activation medium with Brefeldin A (Biolegend). For T cell in vitro activation experiments over several days, Brefeldin A was added to the medium for the last 3 hours.
# T cells = test: qPCR and RNA sequencing of stimulated T cells; format: cell-based, mice
# Procedure: To explore the downstream events linking mitophagy to TSCM formation, the inventors performed RNA sequencing to globally assess differential gene expression in T cells exposed for 48 hours to either DMSO or UA in vitro. […] Indeed, when the inventors applied ICG001 to pharmacologically block TCF-1, UA-induced TSCM formation in vitro was abrogated (FIG. 5D-E).
# In vitro activated T cells following the indicated treatments were collected followed by RNA isolation using the RNeasy kit (Qiagen). RNA quality and concentration were determined by Nanodrop spectrophotometer. Complementary DNA was generated using SuperScript II reverse transcriptase (ThermoFisher). A total reaction volume of 13 μl RNA was incubated with oligoDT and DNTP Mix (1 μl each) for 5 min at 65° C. The samples were allowed to cool down for 5 min on ice, and to each 4 μl of 5× First strand buffer, 1 μl DTT, 1 μl RNAseOUT™ and 1 μl Superscript II reverse transcriptase were added. Samples were incubated for 1 h at 42° C. Synthesized cDNA was 1:5 diluted in nuclease free water before being processed into gene expression analysis with the 96 wells StepOne real time PCR Machine (Applied biosystems) using 2× FastStart Universal SYBR Green Master Mix (Roche). CT values were normalized to the gene indicated in the respective figures. The following primers were used: […]
# For RNA isolation of in vitro stimulated T cells, RNeasy mini kit (Qiagen) was used. 200 ng of total RNA was used to prepare the library for RNA sequencing. Coexpression patterns of genes associated with effector and memory cell fate, immune checkpoints, effector molecules, and adhesion/homing were chosen based on the literature as depicted in the main text. Data underwent z-score normalization for display as described previously (Xiong et al., 2020). Upstream regulator analysis was performed using Ingenuity pathway analysis software, using a cut-off log 2fold change of 1 and a p value of […].
structure (smiles),measurement,setting,value
"O=c1oc2cc(O)ccc2c2ccc(O)cc12 [UA, Urolithin A]",tumor growth (tumor suppressive effect of UA),"APTK-induced tumors; Pink1 deletion, UA-containing vs control diet",abrogated the tumor suppressive effect of UA
same,TCF-1 expression in CD8+ TIL,APTK-induced tumors; UA vs control diet,did not exhibit differences
same,exhaustion markers in CD8+ TIL,APTK-induced tumors; UA vs control diet,did not exhibit differences
same,ex vivo cytokine release of CD8+ TIL,"APTK-induced tumors; UA vs control diet, PMA/Ionomycin",did not exhibit differences
same,transcription of several Wnt target genes,T cells,increased transcription
same,"expression of Cd27, Ccr7 and adhesion genes","T cells; RNA sequencing, 48 h",enhancing expression
same,expression of effector fate associated genes Prdm1 and Id2,"T cells; RNA sequencing, 48 h",reduced expression
same,expression of genes that code for immune checkpoints and effector molecules,"T cells; RNA sequencing, 48 h",reduced the expression
same,"genes involved in memory formation such as Tcf7, Bach2 and Bcl6","T cells; RNA sequencing, 48 h",special enrichment
same,Atg5 gene expression,"T cells; qPCR, 24 h, UA 50 μM",significant upregulation
same,Atg7 gene expression,"T cells; qPCR, 24 h, UA 50 μM",significant upregulation
same,Lamp2 gene expression,"T cells; qPCR, 24 h, UA 50 μM",significant upregulation
same,Pink1 gene expression,"T cells; qPCR, 24 h, UA 50 μM",significant upregulation
same,p62 gene expression,"T cells; qPCR, 24 h, UA 50 μM",significant upregulation
